In the test the test system is autologous IgGs. Nature of the test: Recognition of treated erythrocytes by autologous IgGs (targeting to macrophages). Format: cell-based. The protocol:
The targeting to macrophages of erythrocytes containing drugs and/or contrast means can be achieved by the apparatus shown in the figure following a procedure similar to that used in example 1. When fludarabine was used as an encapsulating agent, a final concentration of 0.8 mM was obtained. The erythrocytes treated in this way were recognised by autologous IgGs in percentages over 80% the total number of processed cells.

Regarding `Nc1nc(F)nc2c1ncn2[C@@H]1O[C@H](CO)[C@@H](O)[C@@H]1O` [fludarabine], the “Treated erythrocytes recognised by autologous IgGs, percentage of total number of processed cells” value is listed as “over 80%”.

These data come from patent publication US9089640B2, “Apparatus and kit for encapsulating at least one compound for therapeutic and/or diagnostic use in erythrocytes” (ERYDEL S.p.A., priority 2010, dated 2015).
